Measured values reported in patent publication US7199097B1, “Peptide fragments having cell death inhibitory activity” (Juridical Foundation The Chemo-Sero-Therapeutic Research …, priority 1998, dated 2007).
Non-standard residues stand in square brackets, D forms with d. Sec = N[C@@H](C[SeH])C(=O)O

Tests used:
Assay type in all cases: cell-based, human
Dami cells [1] = test: Cell death induced by fatty acid in serum free culture of Dami cells; conditions: for induction of cell death: 10 μM, serum free culture in the absence of selenoprotein P; for effective concentration inhibiting cell death: in the presence of 4 μM linoleic acid
Description: (§1) To 1 ml Dami cells (1×10^6 cells/dish/3 ml), which can be subcultured in serum free medium SFO3 (manufactured by Sanko Jun-yaku K. K.) containing 0.05 μM 2ME and 0.1% BSA, was added 2 ml 1:2:2 mixed medium (SA medium) of RPMI 1640/D-MEM/F-12. The cells were cultured for three days and recovered for assay. The cells were washed twice with SA/0.05% fatty acid free BSA (manufactured by Wako Jun-yaku K. K.) and suspended at 3×10^4 cells/ml in the same medium containing 2 to 16 μM arachidonic acid, linoleic acid or linolenic acid. The cell suspension was added to a 96-well plate in each 198 μl for wells for sample addition or in each 100 μl for wells for serial dilution.
To the wells for sample addition was added each 2 μl of 100 μM assay sample and, after stirring, a serial dilution was made with the wells containing 100 μl cell suspension. The plate was incubated at 37° C. in CO2 incubator for 4 to 5 days.

Dami cells [2] = test: Comparison with other antioxidants: cell death in serum free culture of Dami cells in the presence of HSA
Description: It was estimated to what extent vitamin E, known as being useful as an antioxidant to lipid oxidation, and catalase, acting for removal of hydrogen peroxide, could inhibit cell death induced in the assay system of the present invention while serum free culture in the presence of HSA.
as §1, with “added […]” for “added 2”, “with 50% PBS/SA/0.03% HSA” for “with SA/0.05% fatty acid free BSA”, “by SIGMA)” for “by Wako Jun-yaku K. K.)”, “suspended” for “suspended at 3×10^4 cells/ml”, “medium at 3×10^4 cells/ml.” for “medium containing 2 to 16 μM arachidonic acid, linoleic acid or linolenic acid.”, “each 190” for “each 198”
To the wells for sample addition was added each 10 μl of assay sample, i.e. 20 μM vitamin E, catalase or the selenoprotein P fragment and, after stirring, a serial dilution was made with the wells containing 100 μl cell suspension. The plate was incubated at 37° C. in CO2 incubator for 4 to 5 days followed by estimation. For estimation, a sample concentration necessary for cell death inhibition was compared to each other on Day 4 and thereafter. […] The selenoprotein P fragment could inhibit cell death up to 60 pM. From the fact that vitamin E did inhibit cell death in the assay system of the present invention, it was estimated that peroxidization of fatty acids bound to HSA (SIGMA) might be responsible for cell death induction. Moreover, it was expected that the selenoprotein P fragment, which inhibited cell death more effectively than vitamin E, would also act much more efficiently to events to which vitamin E was know to be effective.

Dami cells [3] = test: Cell death-inhibitory activity in Dami cells, serum free culture with HSA, serial dilution
Description: For screening factors having the cell death-inhibitory activity, a culture system needs to be established where cell death is induced. […] A diluted sample of active fractions may be added to this culture system to thereby estimate the cell death-inhibitory activity.
Based on the assay system as described above, the present inventors have aimed at components within the living body, especially those derived from blood, and thoroughly investigated for searching the activity of interest. […] For the purpose of quantification of the cell death-inhibitory activity as used herein, dilution of not more than 100-folds is indicated as “0” while in case of dilution of more than 100-folds, a figure of said dilution per se is used for indicating the activity.
To 1 ml Dami cells (described in Greenberg S. M. et al., Blood, vol. 72, p. 1968–1977 (1988); 1×10^6 cells/dish/3 ml), which can be subcultured in serum free medium SFO3 (manufactured by Sanko Jun-yaku K. K.) containing 0.05 μM 2ME and 0.1% BSA, was added 2 ml 1:2:2 mixed medium (SA medium) of RPMI 1640/D-MEM/F-12. The cells were cultured for three days and recovered for assay. The cells were washed twice with 50% PBS/SA/0.03% HSA (manufactured by SIGMA) and suspended in the same medium at 3×10^4 cells/ml. The cell suspension was added to a 96-well plate in each 200 μl for wells for sample addition or in each 100 μl for wells for serial dilution. To the wells for sample addition was added 2 μl assay sample and, after stirring, a serial dilution was made with the wells containing 100 μl cell suspension. The plate was incubated at 37° C. in CO2 incubator for 4 to 5 days followed by estimation.

CCCCC/C=C\C/C=C\C/C=C\C/C=C\CCCCCC(=O)O [adrenic acid]
induction of cell death (Dami cells [1]): induced cell death

CCCCC/C=C\C/C=C\C/C=C\C/C=C\CCCC(=O)O [arachidonic acid]
induction of cell death (Dami cells [1]): induced cell death

CCCCC/C=C\C/C=C\C/C=C\CCCCCCC(=O)O [dihomo-γ-linolenic acid]
induction of cell death (Dami cells [1]): induced cell death

CCCCC/C=C\C/C=C\CCCCCCCC(=O)O [linoleic acid]
induction of cell death (Dami cells [1]): induced cell death

catalase
cell death-inhibitory activity (in words) (Dami cells [2]; serial dilution from 20 μM sample): no cell death-inhibitory activity

docosadienoic acid
induction of cell death (Dami cells [1]): induced cell death

docosatrienoic acid
induction of cell death (Dami cells [1]): induced cell death

eicosadienoic acid
induction of cell death (Dami cells [1]): induced cell death

superoxide dismutase
cell death-inhibitory activity (in words) (Dami cells [3]; each 70 μM of the samples): some activity
cell death-inhibitory activity relative to the peptide fragment of the present invention (Dami cells [3]; each 70 μM of the samples): about 1/100
cell death-inhibitory activity relative to the peptide fragment of the present invention (Dami cells [3]; each 70 μM of the samples, listed as SOD): 1/100

vitamin E
inhibition of cell death at 60 nM (Dami cells [2]; 60 nM): could not
sample concentration up to which cell death is inhibited (Dami cells [2]; Day 4 and thereafter, serial dilution): 125 nM
effective concentration inhibiting cell death (Dami cells [1]): about 100 nM

B1: Full-length selenoprotein P: full-length selenoprotein P prepared from plasma with the antibody affinity column (protein)
chain: ESQDQSSLCKQPPAWSIRDQDPMLNSNGSVTVVALLQAS[Sec]YLCIIEASKLEDLRVKLKKEGYSNISYIVVNHQGISSRLKYTHLKNKVSEHIPVYQQEENQTDVWTLLNGSKDDFLIYDRCGRLVYHLGLPFSFLTFPYVEEAIKIAYCEKKCGNCSLTTLKDEDFCKRVSLATVDKTVETPSPHYHHEHHHNHGHQHLGSSELSENQQPGAPNAPTHPAPPGLHHHHKHKGQHRQGHPENRDMPASEDLQDLQKKLCRKRCINQLLCKLPTDSELAPRS[Sec]CCHCRHLIFEKTGSAIT[Sec]QCKENLPSLCS[Sec]QGLRAEENITESCQ[Sec]RLPPAA[Sec]QISQQLIPTEASAS[Sec]R[Sec]KNQAKK[Sec]E[Sec]PSN
modifications: ends and bridges not checked
effective concentration inhibiting cell death (Dami cells [1]): about 100 nM
Specific activity (Dami cells [3]; Table 3, activity per protein): <2500
Activity (Dami cells [3]; Table 3, fold dilution up to which cells survive): <100
cell death-inhibitory activity per proteins compared with the fragment (Dami cells [3]; purified with anti-selenoprotein P antibody column): much lower
